For experiment [1], the system named is human fibroblasts. Briefly: Induction of chondrocyte from human fibroblast, Alcian Blue staining (Example D). It counts as cell-based. Particulars: from comparison of combinations of Table 7, FIG. 15. As for the experimental part: As materials, human fibroblasts were purchased from DS Pharma Biomedical Co., Ltd. The fibroblasts were derived from a skin of a human.
The human fibroblasts were seeded on 35 mm dishes at a rate of 5×10^4 cells per a dish, and cultured in DMEM medium (Gibco) to which 10% fetal bovine serum (FBS), 100 U/ml penicillin and 100 μg/ml streptomycin under a condition at 37° C. and 5% CO2 were added to become confluent. Note that the DMEM refers to a Dulbecco's Modified Eagle Medium.
The medium in the dish containing the human fibroblasts was exchanged to a DMEM (Thermo Fisher Scientific, Inc.) containing Insulin-Transferrin-Selenium (Thermo Fisher Scientific, Inc., final concentration: 1%), ascorbic acid-2-phosphate (Wako Pure Chemical Industries, Ltd., final concentration: 50 μg/ml), dexamethasone (Wako Pure Chemical Industries, Ltd., final concentration: 0.1 μM), TGF-β3 (PeproTech, Inc., final concentration: 10 ng/ml), L-proline (Nacalai Tesque, final concentration: 40 μg/ml), Antibiotic-Antimycotic (Thermo Fisher Scientific, Inc., final concentration: 1×), and a low molecular weight compound added according to Table 1. Subsequently, the cells were cultured under the condition at 37° C. and 5% CO2 while exchanging the medium to the medium having the same composition every 3 days. The details of the compounds listed in Table 7 are as aforementioned in the present specification.
As a result of culturing human fibroblasts according to Example (2), chondrocyte-like cells appeared 7 days after the onset of culturing. Twenty-one days after the onset of culturing, the cells were subjected to Alcian Blue staining according to a conventional method, to evaluate the presence or absence of acid polysaccharides which are a cartilage matrix. In the figure, the upper pictures show the results of Alcian Blue staining, and the lower pictures present phase-contrast microscopic images in the same visual fields as of the upper pictures.

Experiment [2] concerns human fibroblasts. Briefly: Induction of osteoblast from human fibroblast, von Kossa staining (Example C). It counts as cell-based. The conditions noted are these: from comparison of combinations of Table 6, FIG. 14. How it is done: As materials, human fibroblasts were purchased from DS Pharma Biomedical Co., Ltd. The fibroblasts were derived from a skin of a human. The human fibroblasts were seeded on 35 mm dishes at a rate of 5×10^4 cells per a dish, and cultured in DMEM medium (Gibco) to which 10% fetal bovine serum (FBS), 100 U/ml penicillin and 100 μg/ml streptomycin under a condition at 37° C. and 5% CO2 were added to become confluent. Note that the DMEM refers to a Dulbecco's Modified Eagle Medium. The medium in the dish containing the human fibroblasts was exchanged to a RPMI1640 with L-Glutamine and Phenol Red (Wako Pure Chemical Industries, Ltd.) containing an osteoblast-inducer reagent (Takara Bio Inc.), and a low molecular weight compound added according to Table 1. Subsequently, the cells were cultured under the condition at 37° C. and 5% CO2 while exchanging the medium to the medium having the same composition every 3 days. The details of the compounds listed in Table 6 are as aforementioned in the present specification. As a result of culturing human fibroblasts according to the above (2), osteoblast-like cells appeared 7 days after the onset of culturing. Twenty-one days after the onset of culturing, the cells were subjected to von Kossa staining according to a conventional method, to evaluate the presence or absence of calcium deposition. In the figure, the upper pictures show the results of von Kossa staining, and the lower pictures present phase-contrast microscopic images in the same visual fields as of the upper pictures.

In experiment [3] the test system is human fibroblasts. Briefly: Induction of cardiomyocyte from human fibroblast, cTnT immunostaining (Example F). It counts as cell-based. The conditions noted are these: from comparison of combinations of Table 9, FIG. 17. As for the experimental part:
(§1) As materials, human fibroblasts were purchased from DS Pharma Biomedical Co., Ltd. The fibroblasts were derived from a skin of a human. The human fibroblasts were seeded on 35 mm dishes at a rate of 8×10^4 cells per a dish, and cultured in DMEM high glucose medium (Gibco) to which 10% fetal bovine serum (FBS), 100 U/ml penicillin and 100 μg/ml streptomycin under a condition at 37° C. and 5% CO2 were added for 2 days. Note that the DMEM refers to a Dulbecco's Modified Eagle Medium. […] Subsequently, the cells were cultured under the condition at 37° C. and 5% CO2 while exchanging the medium to the medium having the same composition every 3 days. The details of the compounds listed in Table 9 are as aforementioned in the present specification. As a result of culturing the human fibroblasts in accordance with the above (2), shrinking or beating single cells or small cell masses were recognized 8 days after the onset of culturing. Twenty-one or more days after the onset of culturing, a large number of shrinking or beating cardiomyocyte-like masses were observed. Twenty-one days after the onset of culturing, the cells were immobilized with 2% paraformaldehyde, and then immunostained. For staining, an anti-cTnT antibody (ab10214, Abcam PLC; diluted 200-fold) was used. […] The lower pictures show phase-contrast microscopic images in the same visual fields as of the upper pictures.

Experiment [4] has as its system human fibroblasts. As to the kind of experiment: Induction of brown adipocyte from human fibroblast, UCP1 immunostaining (Example A). It counts as cell-based. The conditions noted are these: from comparison of combinations of Table 1, FIG. 1. As for the experimental part:
as §1, with “(Wako Pure Chemical Industries, Ltd.)” for “(Gibco)”, “1” for “9”, “adipocyte-like” for “shrinking or beating single”, “appeared 6” for “or small cell masses were recognized 8”, “culturing.” for “culturing. Twenty-one or more days after the onset of culturing, a large number of shrinking or beating cardiomyocyte-like masses were observed.”, “immunostained.” for “immunostained. For staining, an anti-cTnT antibody (ab10214, Abcam PLC; diluted 200-fold) was used.”

The subject of experiment [5] is human fibroblasts. As to the kind of experiment: Induction of neural cell from human fibroblast, βIII-tubulin immunostaining (Example E). It counts as cell-based. Particulars: from comparison of combinations of Table 8, FIG. 16. As for the experimental part:
As materials, human fibroblasts were purchased from DS Pharma Biomedical Co., Ltd. The fibroblasts were derived from a skin of a human. The human fibroblasts were seeded on 35 mm dishes at a rate of 8×10^4 cells per a dish, and cultured in DMEM high glucose medium (Wako Pure Chemical Industries, Ltd.) to which 10% fetal bovine serum (FBS), 100 U/ml penicillin and 100 μg/ml streptomycin under a condition at 37° C. and 5% CO2 were added for 2 days. Note that the DMEM refers to a Dulbecco's Modified Eagle Medium. […] Subsequently, the cells were cultured under the condition at 37° C. and 5% CO2 while exchanging the medium to the medium having the same composition every 3 days. The details of the compounds listed in Table 8 are as aforementioned in the present specification. As a result of culturing the human fibroblasts in accordance with the above (2), nerve-like projection structures were recognized 5 days after the onset of culturing. Fourteen days after the onset of culturing, the cells were immobilized with 2% paraformaldehyde, and then immunostained. For staining, an anti-βIII-tubulin antibody (MMS-435P, Covance; diluted 1000-fold) was used. […] The lower pictures show phase-contrast microscopic images in the same visual fields as of the upper pictures.

Experiment [6] concerns β adrenergic receptor signaling pathway in compound-induced brown adipocytes. Briefly: Isoproterenol or forskolin treatment of compound-induced brown adipocytes, mRNA by QRT-PCR. It counts as cell-based, human. The conditions noted are these: for expression of Cited1 after treatment / expression of Ckmt1 after treatment: 3 or 6 hours, FIGS. 12 C and D. How it is done: For the purpose of quantifying gene expression, the whole RNA was extracted from the fibroblasts treated with each compound, using the RNeasy Mini kit (QIAGEN N.V). As a control, a fibroblast was cultured in parallel, in the adipocyte medium. The cells were treated with 0.1 μM, 1 μM and 10 μM isoproterenol or forskolin for 3 hours or 6 hours, and then the whole RNA was extracted from the brown adipocytes induced with the compound and the control cell. The whole RNA was reversely transferred with ReverTraAce® PCR RT Master Mix with gDNA Remover (TOYOBO CO., LTD.), and then subjected to a real-time PCR analysis using Power SYBR Green PCR Master Mix (Thermo Fisher Scientific, Inc.). For one standard, 3 reactions were carried out under the following condition: 40 cycles of reactions at 95° C. for 10 minutes, at 95° C. for 15 seconds, and at 60° C. for 60 seconds. All results were standardized by the amount of the Tbp mRNA.
Thermogenesis through the Ucp1 is regulated through the sympathetic nervous system and the […] receptor signaling pathway in the brown adipocytes. For the purpose of evaluating the thermogenetic ability in the […] induced with the compounds, the brown adipocytes were treated with isoproterenols (β adrenergic receptor agonist) at 3 different concentrations for 3 hours or 6 hours, and then the Ucp1 mRNA was quantified (FIG. 12 A).

For `Cc1c[nH]c(-c2cnc(NCCNc3ccc(C#N)cn3)nc2-c2ccc(Cl)cc2Cl)n1` [CHIR99021], the “role of the component for differentiation of the chondrocytes” value in experiment [1] was “important”. In experiment [2], the “role of the component for differentiation of the osteoblasts” value is recorded as “important”.
`c1ccc2c(-c3cnn4cc(-c5ccc(N6CCNCC6)cc5)cnc34)ccnc2c1` [LDN193189]: the “role of the component for differentiation of the chondrocytes” value in experiment [1] was “important”. Moreover, the “role of the component for differentiation of the osteoblasts” value in experiment [2] is given as “important”.
Regarding `O=C(NOC[C@H](O)CO)c1ccc(F)c(F)c1Nc1ccc(I)cc1F` [PD0325901], in experiment [1], the “role of the component for differentiation of the chondrocytes” value is “not contained”. In addition, in experiment [2], the “role of the component for differentiation of the osteoblasts” value is recorded as “should not be added”. Also, the “role of the component for differentiation into cardiomyocytes” value in experiment [3] was “important”.
For the compound `Cc1cccc(-c2n[nH]cc2-c2ccc3ncccc3n2)n1` [Repsox], the “role of the component for differentiation into cardiomyocytes” value in experiment [3] was “important”.
Consider `NC(=O)c1ccc(-c2nc(-c3ccc4c(c3)OCO4)c(-c3ccccn3)[nH]2)cc1` [SB431542], for which the “role of the component for differentiation of the chondrocytes” value in experiment [1] is recorded as “important”. Besides, the “role of the component for differentiation of the osteoblasts” value in experiment [2] was “important”. Also, the “role of the component for differentiation into brown adipocytes” value in experiment [4] was “preferable”.
Turning to `c1cc(-c2cnn3cc(-c4ccc(OCCN5CCCCC5)cc4)cnc23)ccn1` [dorsomorphin, Dorsomorphin], the “role of the component for differentiation of the chondrocytes” value in experiment [1] is reported as “not contained”. For the same compound, in experiment [5], the “role of the component for differentiation into neural cells” value was “important”. In experiment [3], the “role of the component for differentiation into cardiomyocytes” value was “important”. Besides, the “role of the component for differentiation into brown adipocytes” value in experiment [4] is on record as “preferable”.
In the case of `C=C[C@@]1(C)CC(=O)[C@]2(O)[C@@]3(C)[C@@H](O)CCC(C)(C)[C@@H]3[C@H](O)[C@H](OC(C)=O)[C@@]2(C)O1` [forskolin, Forskolin], in experiment [6] (0.1, 1 or 10 μM, FIG. 12 B), the “Ucp1 expression, cells treated for 6 hours versus 3 hours” value is on record as “more enhanced”. Further, in experiment [6], the “expression of Cited1 after treatment” value is reported as “no significant change” and the “expression of Ckmt1 after treatment” value is “no significant change”. Besides, the “role of the component for differentiation of the chondrocytes” value in experiment [1] is given as “important”. Besides, the “role of the component for differentiation of the osteoblasts” value in experiment [2] was “important”. In addition, the “role of the component for differentiation into cardiomyocytes” value in experiment [3] is listed as “important”.
`CC(C)NCC(O)c1ccc(O)c(O)c1` (stereo not drawn) [isoproterenol, Isoproterenol]: the “Ucp1 mRNA, 3-hour treatment” value in experiment [6] (0.1, 1 or 10 μM, versus untreated cells, FIG. 12) is listed as “slightly increased”. Also, in experiment [6], the “expression of Cited1 after treatment” value was “no significant change” and the “expression of Ckmt1 after treatment” value is “no significant change”.

Source of the values: US11459546B2, “Method for producing somatic cell, somatic cell, and composition” (Kyoto Prefectural Public University Corporation, priority 2016, dated 2022).
